# According to publication PMC7385619, “A triple action CDK4/6-PI3K-BET inhibitor with augmented cancer cell cytotoxicity” (Cell Discovery, 2020):
# Like-named read-outs stand apart in the source and are kept apart here.
# Legend:
# Assay in all cases: KINOMEscan assay (Eurofins DiscoverX)
# Format in all cases: binding
# kinome (kinase panel) [1] = molecular target: T1, kinome (kinase panel) (Homo sapiens, UniProt Q96PN8); settings: TSSK3; 1000 nM; read-out: Percent Control
# T1 construct: purchased Eurofins DiscoverX
# kinome (kinase panel) [2] = molecular target: T2, kinome (kinase panel) (Homo sapiens, UniProt P48736); settings: PIK3CG; 1000 nM; read-out: Percent Control
# T2 construct: purchased Eurofins DiscoverX
# kinome (kinase panel) [3] = molecular target: T3, kinome (kinase panel) (Homo sapiens, UniProt Q13164); settings: ERK5 (Entrez MAPK7); 1000 nM; read-out: Percent Control
# T3 construct: purchased Eurofins DiscoverX
# kinome (kinase panel) [4] = molecular target: T4, kinome (kinase panel) (Homo sapiens, UniProt Q9NWZ3); settings: IRAK4; 1000 nM; read-out: Percent Control
# T4 construct: purchased Eurofins DiscoverX
# kinome (kinase panel) [5] = molecular target: T5, kinome (kinase panel) (Homo sapiens, UniProt O95835); settings: LATS1; 1000 nM; read-out: Percent Control
# T5 construct: purchased Eurofins DiscoverX
# kinome (kinase panel) [6] = molecular target: T6, kinome (kinase panel) (Homo sapiens, UniProt Q13131); settings: AMPK-alpha1 (Entrez PRKAA1); 1000 nM; read-out: Percent Control
# T6 construct: purchased Eurofins DiscoverX
# kinome (kinase panel) [7] = molecular target: T7, kinome (kinase panel) (Homo sapiens, UniProt Q9H2K8); settings: TAOK3; 1000 nM; read-out: Percent Control
# T7 construct: purchased Eurofins DiscoverX
# kinome (kinase panel) [8] = molecular target: T8, kinome (kinase panel) (Homo sapiens, UniProt Q14680); settings: MELK; 1000 nM; read-out: Percent Control
# T8 construct: purchased Eurofins DiscoverX
# kinome (kinase panel) [9] = molecular target: T9, kinome (kinase panel) (Homo sapiens, UniProt Q16816); settings: PHKG1; 1000 nM; read-out: Percent Control
# T9 construct: purchased Eurofins DiscoverX
# kinome (kinase panel) [10] = molecular target: T10, kinome (kinase panel) (Homo sapiens, UniProt P00519, H396P)
# T10 construct: purchased Eurofins DiscoverX
# kinome (kinase panel) [11] = molecular target: T11, kinome (kinase panel) (Homo sapiens, UniProt O14976); settings: GAK; 1000 nM; read-out: Percent Control
# T11 construct: purchased Eurofins DiscoverX
# kinome (kinase panel) [12] = molecular target: T12, kinome (kinase panel) (Homo sapiens, UniProt P10721, V559D/V654A); settings: read-out: Percent Control
# T12 construct: purchased Eurofins DiscoverX
# kinome (kinase panel) [13] = molecular target: T13, kinome (kinase panel) (Homo sapiens, UniProt Q07912); settings: TNK2; 1000 nM; read-out: Percent Control
# T13 construct: purchased Eurofins DiscoverX
# kinome (kinase panel) [14] = molecular target: T14, kinome (kinase panel) (Homo sapiens, UniProt Q8TBX8); settings: PIP5K2C (Entrez PIP4K2C); 1000 nM; read-out: Percent Control
# T14 construct: purchased Eurofins DiscoverX
# kinome (kinase panel) [15] = molecular target: T15, kinome (kinase panel) (Homo sapiens, UniProt Q16584); settings: MLK3 (Entrez MAP3K11); 1000 nM; read-out: Percent Control
# T15 construct: purchased Eurofins DiscoverX
# kinome (kinase panel) [16] = molecular target: T16, kinome (kinase panel) (Homo sapiens, UniProt Q13163); settings: MEK5 (Entrez MAP2K5); 1000 nM; read-out: Percent Control
# T16 construct: purchased Eurofins DiscoverX
# kinome (kinase panel) [17] = molecular target: T17, kinome (kinase panel) (Homo sapiens, UniProt P31749); settings: AKT1; 1000 nM; read-out: Percent Control
# T17 construct: purchased Eurofins DiscoverX
# kinome (kinase panel) [18] = molecular target: T18, kinome (kinase panel) (Homo sapiens, UniProt Q9UKE5); settings: TNIK; 1000 nM; read-out: Percent Control
# T18 construct: purchased Eurofins DiscoverX
# kinome (kinase panel) [19] = molecular target: T19, kinome (kinase panel) (Homo sapiens, UniProt P07949, M918T); settings: read-out: Percent Control
# T19 construct: purchased Eurofins DiscoverX
# kinome (kinase panel) [20] = molecular target: T20, kinome (kinase panel) (Homo sapiens, UniProt O43353); settings: RIPK2; 1000 nM; read-out: Percent Control
# T20 construct: purchased Eurofins DiscoverX
# kinome (kinase panel) [21] = molecular target: T21, kinome (kinase panel) (Homo sapiens, UniProt P06241); settings: FYN; 1000 nM; read-out: Percent Control
# T21 construct: purchased Eurofins DiscoverX
# kinome (kinase panel) [22] = molecular target: T22, kinome (kinase panel) (Homo sapiens, UniProt Q13464); settings: ROCK1; 1000 nM; read-out: Percent Control
# T22 construct: purchased Eurofins DiscoverX
# kinome (kinase panel) [23] = molecular target: T23, kinome (kinase panel) (Homo sapiens, UniProt Q13523); settings: PRP4 (Entrez PRPF4B); 1000 nM; read-out: Percent Control
# T23 construct: purchased Eurofins DiscoverX
# kinome (kinase panel) [24] = molecular target: T24, kinome (kinase panel) (Homo sapiens, UniProt P31152); settings: ERK4 (Entrez MAPK4); 1000 nM; read-out: Percent Control
# T24 construct: purchased Eurofins DiscoverX
# kinome (kinase panel) [25] = molecular target: T25, kinome (kinase panel) (Homo sapiens, UniProt Q5S007); settings: LRRK2; 1000 nM; read-out: Percent Control
# T25 construct: purchased Eurofins DiscoverX
# kinome (kinase panel) [26] = molecular target: T26, kinome (kinase panel) (Homo sapiens, UniProt P24723); settings: PRKCH; 1000 nM; read-out: Percent Control
# T26 construct: purchased Eurofins DiscoverX
# kinome (kinase panel) [27] = molecular target: T27, kinome (kinase panel) (Homo sapiens, UniProt P33981); settings: TTK; 1000 nM; read-out: Percent Control
# T27 construct: purchased Eurofins DiscoverX
# kinome (kinase panel) [28] = molecular target: T28, kinome (kinase panel) (Homo sapiens, UniProt Q9H422); settings: HIPK3; 1000 nM; read-out: Percent Control
# T28 construct: purchased Eurofins DiscoverX
# kinome (kinase panel) [29] = molecular target: T29, kinome (kinase panel) (Homo sapiens, UniProt Q8IW41); settings: MAPKAPK5; 1000 nM; read-out: Percent Control
# T29 construct: purchased Eurofins DiscoverX
# kinome (kinase panel) [30] = molecular target: T30, kinome (kinase panel) (Homo sapiens, UniProt O75676); settings: 1000 nM, read-out: Percent Control
# T30 construct: purchased Eurofins DiscoverX
# kinome (kinase panel) [31] = molecular target: T31, kinome (kinase panel) (Homo sapiens, UniProt Q9Y243); settings: AKT3; 1000 nM; read-out: Percent Control
# T31 construct: purchased Eurofins DiscoverX
# kinome (kinase panel) [32] = molecular target: T32, kinome (kinase panel) (Homo sapiens, UniProt Q9BZL6); settings: PRKD2; 1000 nM; read-out: Percent Control
# T32 construct: purchased Eurofins DiscoverX
# T30 sequence (O75676 whole entry): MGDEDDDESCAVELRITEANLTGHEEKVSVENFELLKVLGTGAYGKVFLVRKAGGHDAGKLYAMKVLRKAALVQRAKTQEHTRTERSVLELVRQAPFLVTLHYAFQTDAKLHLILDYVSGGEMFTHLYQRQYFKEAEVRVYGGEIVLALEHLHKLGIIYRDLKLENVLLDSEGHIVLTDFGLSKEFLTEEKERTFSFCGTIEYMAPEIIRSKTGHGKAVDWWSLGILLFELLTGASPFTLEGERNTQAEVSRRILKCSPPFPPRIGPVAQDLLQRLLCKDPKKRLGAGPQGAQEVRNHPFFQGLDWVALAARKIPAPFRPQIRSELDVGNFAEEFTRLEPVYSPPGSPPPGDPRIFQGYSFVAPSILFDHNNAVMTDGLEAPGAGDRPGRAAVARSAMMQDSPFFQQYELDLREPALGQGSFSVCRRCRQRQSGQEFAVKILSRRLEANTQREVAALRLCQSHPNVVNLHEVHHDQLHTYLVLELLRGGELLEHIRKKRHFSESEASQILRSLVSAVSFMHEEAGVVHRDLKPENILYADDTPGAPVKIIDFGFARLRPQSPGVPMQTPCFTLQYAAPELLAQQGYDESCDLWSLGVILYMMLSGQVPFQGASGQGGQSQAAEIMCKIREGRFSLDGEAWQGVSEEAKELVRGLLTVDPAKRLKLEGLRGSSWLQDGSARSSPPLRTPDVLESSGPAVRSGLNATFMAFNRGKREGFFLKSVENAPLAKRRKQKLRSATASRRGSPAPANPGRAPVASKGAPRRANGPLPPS
# T18 sequence (Q9UKE5 whole entry): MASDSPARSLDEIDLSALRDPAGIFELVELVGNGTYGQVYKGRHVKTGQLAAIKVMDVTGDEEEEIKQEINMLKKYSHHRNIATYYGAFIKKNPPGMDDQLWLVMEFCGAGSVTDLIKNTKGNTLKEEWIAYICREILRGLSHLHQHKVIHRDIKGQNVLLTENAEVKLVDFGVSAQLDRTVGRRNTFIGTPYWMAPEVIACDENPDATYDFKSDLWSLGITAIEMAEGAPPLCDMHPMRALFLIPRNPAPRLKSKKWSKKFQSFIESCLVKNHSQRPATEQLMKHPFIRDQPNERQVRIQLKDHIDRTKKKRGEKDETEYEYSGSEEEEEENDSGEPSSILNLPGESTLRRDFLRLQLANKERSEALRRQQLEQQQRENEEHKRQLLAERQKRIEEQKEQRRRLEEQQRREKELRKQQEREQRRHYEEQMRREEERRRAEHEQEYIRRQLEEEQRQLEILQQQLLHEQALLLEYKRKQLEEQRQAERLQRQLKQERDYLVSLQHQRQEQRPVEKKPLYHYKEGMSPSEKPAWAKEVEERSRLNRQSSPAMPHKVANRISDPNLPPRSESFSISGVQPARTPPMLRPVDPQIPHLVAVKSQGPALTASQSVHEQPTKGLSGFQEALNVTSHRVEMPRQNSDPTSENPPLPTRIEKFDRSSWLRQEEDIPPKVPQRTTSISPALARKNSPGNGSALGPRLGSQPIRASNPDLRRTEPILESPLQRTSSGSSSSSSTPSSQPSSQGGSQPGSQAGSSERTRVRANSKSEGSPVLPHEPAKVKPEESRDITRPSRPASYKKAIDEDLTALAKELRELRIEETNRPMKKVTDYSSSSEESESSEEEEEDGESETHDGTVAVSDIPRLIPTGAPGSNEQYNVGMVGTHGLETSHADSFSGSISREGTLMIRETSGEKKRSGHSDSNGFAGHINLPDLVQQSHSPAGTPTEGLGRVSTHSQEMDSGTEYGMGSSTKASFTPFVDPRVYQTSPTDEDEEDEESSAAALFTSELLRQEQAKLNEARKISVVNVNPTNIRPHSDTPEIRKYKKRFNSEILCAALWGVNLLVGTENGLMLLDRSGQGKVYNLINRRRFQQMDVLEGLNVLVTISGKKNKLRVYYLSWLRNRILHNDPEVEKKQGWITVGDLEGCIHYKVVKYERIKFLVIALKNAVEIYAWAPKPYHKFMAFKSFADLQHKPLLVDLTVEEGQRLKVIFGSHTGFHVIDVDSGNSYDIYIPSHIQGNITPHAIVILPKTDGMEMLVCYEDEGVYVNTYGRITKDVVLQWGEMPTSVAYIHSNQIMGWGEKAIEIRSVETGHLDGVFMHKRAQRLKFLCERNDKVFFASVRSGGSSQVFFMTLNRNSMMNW
# T31 sequence (Q9Y243 whole entry): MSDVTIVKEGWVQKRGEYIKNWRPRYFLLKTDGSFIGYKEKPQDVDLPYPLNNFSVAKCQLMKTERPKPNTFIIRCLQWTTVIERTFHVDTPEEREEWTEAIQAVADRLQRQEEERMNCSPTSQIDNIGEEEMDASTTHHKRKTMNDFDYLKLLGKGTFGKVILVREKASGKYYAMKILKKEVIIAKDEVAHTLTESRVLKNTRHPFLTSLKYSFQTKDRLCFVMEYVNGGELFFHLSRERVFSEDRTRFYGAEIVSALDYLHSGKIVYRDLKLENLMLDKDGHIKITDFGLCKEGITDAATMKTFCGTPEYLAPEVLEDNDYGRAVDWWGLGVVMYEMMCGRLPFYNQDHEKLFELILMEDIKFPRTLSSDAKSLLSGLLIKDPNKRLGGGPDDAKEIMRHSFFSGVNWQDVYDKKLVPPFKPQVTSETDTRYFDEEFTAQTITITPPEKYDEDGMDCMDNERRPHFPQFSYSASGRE
# T25 sequence (Q5S007 whole entry): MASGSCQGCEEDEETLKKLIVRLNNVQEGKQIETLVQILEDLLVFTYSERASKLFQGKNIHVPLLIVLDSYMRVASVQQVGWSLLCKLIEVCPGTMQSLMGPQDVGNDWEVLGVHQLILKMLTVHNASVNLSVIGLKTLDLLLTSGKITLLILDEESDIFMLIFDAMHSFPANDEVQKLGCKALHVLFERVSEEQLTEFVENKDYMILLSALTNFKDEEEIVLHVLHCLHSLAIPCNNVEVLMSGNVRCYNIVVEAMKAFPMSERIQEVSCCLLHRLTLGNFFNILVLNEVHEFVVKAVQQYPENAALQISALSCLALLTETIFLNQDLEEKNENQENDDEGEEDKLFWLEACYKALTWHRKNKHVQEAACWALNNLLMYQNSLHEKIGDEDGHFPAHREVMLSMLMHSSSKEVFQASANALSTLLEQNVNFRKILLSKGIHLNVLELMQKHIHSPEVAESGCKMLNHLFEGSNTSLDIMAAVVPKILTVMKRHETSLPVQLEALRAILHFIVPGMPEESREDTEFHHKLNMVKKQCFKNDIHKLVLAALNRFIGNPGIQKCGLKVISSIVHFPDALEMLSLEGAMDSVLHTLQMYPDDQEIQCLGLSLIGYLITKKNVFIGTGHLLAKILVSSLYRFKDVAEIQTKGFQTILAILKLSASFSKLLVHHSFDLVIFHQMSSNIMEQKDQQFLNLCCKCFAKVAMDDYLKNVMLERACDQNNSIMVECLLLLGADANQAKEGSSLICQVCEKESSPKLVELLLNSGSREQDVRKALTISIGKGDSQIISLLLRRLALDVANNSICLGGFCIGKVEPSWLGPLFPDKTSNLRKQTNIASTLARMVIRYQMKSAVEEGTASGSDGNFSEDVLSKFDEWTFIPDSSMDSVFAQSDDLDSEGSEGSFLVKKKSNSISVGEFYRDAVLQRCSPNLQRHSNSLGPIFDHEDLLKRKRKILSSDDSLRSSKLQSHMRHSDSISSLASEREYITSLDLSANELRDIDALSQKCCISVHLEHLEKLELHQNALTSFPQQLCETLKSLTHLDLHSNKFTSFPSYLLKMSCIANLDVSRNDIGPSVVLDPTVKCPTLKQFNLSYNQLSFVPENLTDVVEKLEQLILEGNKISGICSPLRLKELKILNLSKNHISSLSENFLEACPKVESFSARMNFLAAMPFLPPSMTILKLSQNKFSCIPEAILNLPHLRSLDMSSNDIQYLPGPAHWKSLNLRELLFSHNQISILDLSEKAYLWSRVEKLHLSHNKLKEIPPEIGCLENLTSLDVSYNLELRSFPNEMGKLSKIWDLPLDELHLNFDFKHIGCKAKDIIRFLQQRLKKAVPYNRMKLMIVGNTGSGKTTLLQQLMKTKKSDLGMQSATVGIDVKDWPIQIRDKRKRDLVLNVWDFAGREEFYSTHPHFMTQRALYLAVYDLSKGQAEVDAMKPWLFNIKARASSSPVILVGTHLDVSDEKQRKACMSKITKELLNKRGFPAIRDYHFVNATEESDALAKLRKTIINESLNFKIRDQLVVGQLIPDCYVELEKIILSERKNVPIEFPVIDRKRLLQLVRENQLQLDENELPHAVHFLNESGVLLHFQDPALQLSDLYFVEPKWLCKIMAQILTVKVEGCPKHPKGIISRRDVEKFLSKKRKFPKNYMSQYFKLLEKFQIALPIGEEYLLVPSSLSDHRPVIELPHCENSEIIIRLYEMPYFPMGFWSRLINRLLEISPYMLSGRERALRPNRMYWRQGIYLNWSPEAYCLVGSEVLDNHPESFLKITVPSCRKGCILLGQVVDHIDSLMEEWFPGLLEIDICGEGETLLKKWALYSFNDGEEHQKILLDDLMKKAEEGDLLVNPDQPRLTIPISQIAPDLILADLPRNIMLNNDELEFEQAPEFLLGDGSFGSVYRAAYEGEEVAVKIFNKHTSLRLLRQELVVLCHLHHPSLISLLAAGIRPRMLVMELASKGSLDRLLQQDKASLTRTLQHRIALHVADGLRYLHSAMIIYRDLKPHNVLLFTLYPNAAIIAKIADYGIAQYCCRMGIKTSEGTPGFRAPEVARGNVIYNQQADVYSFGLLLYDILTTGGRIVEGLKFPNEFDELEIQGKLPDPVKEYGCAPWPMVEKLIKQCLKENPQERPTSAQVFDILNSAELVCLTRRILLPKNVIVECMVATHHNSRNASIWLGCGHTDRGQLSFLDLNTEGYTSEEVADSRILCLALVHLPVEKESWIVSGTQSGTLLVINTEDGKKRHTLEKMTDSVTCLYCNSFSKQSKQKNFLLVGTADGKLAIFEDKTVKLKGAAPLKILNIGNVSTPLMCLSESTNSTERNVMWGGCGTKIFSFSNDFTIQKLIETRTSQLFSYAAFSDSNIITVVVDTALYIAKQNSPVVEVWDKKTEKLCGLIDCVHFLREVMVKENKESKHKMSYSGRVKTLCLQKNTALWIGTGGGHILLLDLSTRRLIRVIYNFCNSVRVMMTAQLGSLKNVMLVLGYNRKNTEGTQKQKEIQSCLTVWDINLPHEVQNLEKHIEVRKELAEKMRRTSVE
smiles,measurement,setting,value
CN(C)C(=O)c1cc2cnc(Nc3ccc(-c4csc5c(=O)cc(N6CCOCC6)oc45)cc3)nc2n1C1CCCC1 [SRX3177],remaining binding at 1 µM,kinome (kinase panel) [1],100%
same,remaining binding at 1 µM,kinome (kinase panel) [2],85%
same,remaining binding at 1 µM,kinome (kinase panel) [3],96%
same,remaining binding at 1 µM,kinome (kinase panel) [4],45%
same,remaining binding at 1 µM,kinome (kinase panel) [5],91%
same,remaining binding at 1 µM,kinome (kinase panel) [6],100%
same,remaining binding at 1 µM,kinome (kinase panel) [7],2.5%
same,remaining binding at 1 µM,kinome (kinase panel) [8],100%
same,remaining binding at 1 µM,kinome (kinase panel) [9],88%
same,Percent Control,kinome (kinase panel) [10],52
same,remaining binding at 1 µM,kinome (kinase panel) [10]; read-out: Percent Control,57%
same,remaining binding at 1 µM,kinome (kinase panel) [11],56%
same,remaining binding at 1 µM,kinome (kinase panel) [12],100%
same,remaining binding at 1 µM,kinome (kinase panel) [13],90%
same,remaining binding at 1 µM,kinome (kinase panel) [14],1.8%
same,remaining binding at 1 µM,kinome (kinase panel) [15],73%
same,remaining binding at 1 µM,kinome (kinase panel) [16],12%
same,remaining binding at 1 µM,kinome (kinase panel) [17],100%
same,remaining binding at 1 µM,kinome (kinase panel) [18],95%
same,remaining binding at 1 µM,kinome (kinase panel) [19],100%
same,remaining binding at 1 µM,kinome (kinase panel) [20],93%
same,remaining binding at 1 µM,kinome (kinase panel) [21],96%
same,remaining binding at 1 µM,kinome (kinase panel) [22],87%
same,remaining binding at 1 µM,kinome (kinase panel) [23],58%
same,remaining binding at 1 µM,kinome (kinase panel) [24],96%
same,remaining binding at 1 µM,kinome (kinase panel) [25],34%
same,remaining binding at 1 µM,kinome (kinase panel) [26],97%
same,remaining binding at 1 µM,kinome (kinase panel) [27],1.8%
same,remaining binding at 1 µM,kinome (kinase panel) [28],77%
same,remaining binding at 1 µM,kinome (kinase panel) [29],72%
same,remaining binding at 1 µM,kinome (kinase panel) [30]; RPS6KA4(Kin.Dom.1-N-terminal),100%
same,remaining binding at 1 µM,kinome (kinase panel) [30]; RPS6KA4(Kin.Dom.2-C-terminal),55%
same,remaining binding at 1 µM,kinome (kinase panel) [31],100%
same,remaining binding at 1 µM,kinome (kinase panel) [32],100%
